The structures appear in SMILES notation.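 Assay format: 96-well plates, 48-hour exposure. TGI is the concentration that stops growth completely.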

Some test systems named below: KM12 colon; SNB-75 CNS; SW-620 colon; HT29 colon; HL-60(TB) leukemia; T-47D breast; NCI/ADR-RES ovarian; OVCAR-3 ovarian; NCI-H460 lung; SN12C renal; 786-0 renal; OVCAR-8 ovarian; SF-295 CNS; SK-MEL-28 melanoma; SF-268 CNS; RXF 393 renal; NCI-H23 lung; HOP-92 NSCLC; NCI-H522 lung.
Holding throughout (test): NCI tumour cell line growth inhibition, 48 h

As for `COC(=O)C1=COC(OC2OC(CO)C(O)C(O)C2O)C2C3CN4CCc5c([nH]c6ccccc56)C4(CC12)O3` (centres undefined), the TGI with KM12 colon, with SNB-75 CNS, in the assay on SW-620 colon, with HT29 colon, in the assay with HL-60(TB) leukemia and with T-47D breast was > 100 µM each time. Also, the TGI in the assay with NCI/ADR-RES ovarian, in the assay on OVCAR-3 ovarian, with NCI-H460 lung, in the assay on SN12C renal, in the assay on 786-0 renal and in the assay on OVCAR-8 ovarian was > 100 µM each time. Besides, the TGI in the assay on SF-295 CNS was > 100 µM; in the assay on SK-MEL-28 melanoma, > 100 µM; in the assay with SF-268 CNS it was 91.1 µM; with RXF 393 renal, > 100 µM; in the assay on NCI-H23 lung, > 100 µM.
Take `CC1=NC2c3c(-c4ccc(Cl)cc4)cn(-c4ccc(C)cc4)c3N=CN2N1` (centres undefined): the TGI in the assay on HOP-92 NSCLC is 63.3 µM; in the assay with SNB-75 CNS it was 97.9 µM; with SW-620 colon it was > 100 µM; in the assay with HT29 colon, > 100 µM; with HL-60(TB) leukemia, > 100 µM; with NCI/ADR-RES ovarian, > 100 µM. In addition, the TGI in the assay with NCI-H522 lung, in the assay with OVCAR-3 ovarian, in the assay on NCI-H460 lung, in the assay on SN12C renal, in the assay with 786-0 renal and in the assay on OVCAR-8 ovarian was > 100 µM in each case. Further, the TGI with SF-295 CNS, in the assay on SK-MEL-28 melanoma, in the assay with SF-268 CNS, with RXF 393 renal and with NCI-H23 lung was > 100 µM throughout.
Take `CCSc1cc2c(cc1O)CC[C@@H]1[C@@H]2CC[C@]2(C)[C@@H](O)CC[C@@H]12`: the TGI was 21.9 µM in the assay with KM12 colon; 24.3 µM in the assay on HOP-92 NSCLC; 29.6 µM with SNB-75 CNS; 13.2 µM in the assay with SW-620 colon; 23 µM in the assay with HT29 colon; > 100 µM in the assay on HL-60(TB) leukemia. Further, the TGI in the assay with NCI/ADR-RES ovarian turned out to be 26.9 µM; in the assay on NCI-H522 lung, 19.5 µM; in the assay on NCI-H460 lung, 19.2 µM; in the assay on SN12C renal, 35.1 µM; with 786-0 renal, 24.5 µM; with OVCAR-8 ovarian it was 38.5 µM. Moreover, the TGI in the assay with SK-MEL-28 melanoma is 28.9 µM; with SF-268 CNS it was 55 µM; in the assay with RXF 393 renal, 39.2 µM; in the assay on NCI-H23 lung, 44.3 µM.
With `CC1(C)CC(=O)C2=C(C1)NC1=C(C2)C(=O)CC(C)(C)C1`, the TGI in the assay with KM12 colon, with SNB-75 CNS, in the assay with SW-620 colon, in the assay with HT29 colon, with HL-60(TB) leukemia and in the assay on NCI/ADR-RES ovarian was > 100 µM in each case. Also, the TGI in the assay with OVCAR-3 ovarian, in the assay with NCI-H460 lung, in the assay on SN12C renal, in the assay with 786-0 renal, in the assay with OVCAR-8 ovarian and with SF-295 CNS was > 100 µM in each case. Also, the TGI with SK-MEL-28 melanoma, in the assay with SF-268 CNS, with RXF 393 renal and in the assay with NCI-H23 lung was > 100 µM in each case.
As for `CC(=O)Oc1ccc2cc(Oc3ccc(Cl)c(Cl)c3)c(=O)oc2c1`, the TGI in the assay with KM12 colon was 48.7 µM; with HOP-92 NSCLC, 78.8 µM; in the assay with SNB-75 CNS it was > 100 µM; in the assay with SW-620 colon, > 100 µM; in the assay on HT29 colon, > 100 µM; with HL-60(TB) leukemia it was > 100 µM. The TGI stood at 99.3 µM in the assay on T-47D breast; 46.5 µM in the assay with NCI-H522 lung; 50 µM with OVCAR-3 ovarian; 66 µM in the assay with NCI-H460 lung; 54.1 µM with SN12C renal; 52.4 µM with 786-0 renal. Further, the TGI is 69.5 µM in the assay on OVCAR-8 ovarian; > 100 µM in the assay on SF-295 CNS; 79.3 µM with SK-MEL-28 melanoma; > 100 µM with SF-268 CNS; 65.9 µM with RXF 393 renal; > 100 µM in the assay with NCI-H23 lung.
As for `CC1CC/C(=C\c2ccc(N(C)C)cc2)C2=C1C(c1ccc(N(C)C)cc1)NC(=S)N2` (centres undefined), the TGI with KM12 colon, in the assay with SNB-75 CNS, in the assay on SW-620 colon, in the assay with HT29 colon, in the assay with HL-60(TB) leukemia and in the assay with T-47D breast was > 100 µM throughout. Also, the TGI in the assay on NCI/ADR-RES ovarian, in the assay on OVCAR-3 ovarian, in the assay with SN12C renal, in the assay with 786-0 renal, with OVCAR-8 ovarian and in the assay with SF-295 CNS was > 100 µM each time. Moreover, the TGI in the assay on SK-MEL-28 melanoma, in the assay with SF-268 CNS, with RXF 393 renal and in the assay on NCI-H23 lung was > 100 µM throughout.
Regarding `C=C/C(C)=C\CC1[C@](C)(O)CC[C@H]2C(C)(C)C(O)CC[C@]12C` (some centres undefined), the TGI with KM12 colon, in the assay with HOP-92 NSCLC, with SNB-75 CNS, with SW-620 colon, with HT29 colon and with HL-60(TB) leukemia was > 100 µM each time. The TGI in the assay with NCI/ADR-RES ovarian, in the assay on NCI-H522 lung, with OVCAR-3 ovarian, in the assay on NCI-H460 lung, with SN12C renal and with 786-0 renal was > 100 µM throughout. The TGI with OVCAR-8 ovarian, with SF-295 CNS, in the assay on SK-MEL-28 melanoma, with SF-268 CNS, in the assay on RXF 393 renal and in the assay on NCI-H23 lung was > 100 µM in each case.
As to `CCCN(CCC)C(=S)N/N=C/c1ccccn1`, the TGI in the assay with KM12 colon is 16.1 µM; in the assay on HOP-92 NSCLC it was 26.7 µM; in the assay with SNB-75 CNS, 0.413 µM; in the assay on SW-620 colon, 28.6 µM; in the assay on HT29 colon, > 37.4 µM; in the assay with HL-60(TB) leukemia, 0.207 µM. Further, the TGI in the assay with NCI/ADR-RES ovarian was < 0.0354 µM; in the assay on NCI-H522 lung it was 1.67 µM; in the assay on NCI-H460 lung it was 0.187 µM; in the assay with SN12C renal, 0.678 µM; with 786-0 renal, 1.07 µM; with OVCAR-8 ovarian, 11.9 µM. The TGI with SF-295 CNS was 21.7 µM; with SK-MEL-28 melanoma, > 63.9 µM; with RXF 393 renal it was 3.41 µM; in the assay with NCI-H23 lung it was 19.5 µM.

Source of the values: PubChem BioAssay (NCI).
